# Measured values from patent US20080241194A1, “COMPOSITIONS AND METHODS FOR PROTECTING ORGANS, TISSUE AND CELLS FROM IMMUNE SYSTEM-MEDIATED DAMAGE” (THE BOARD OF TRUSTEES OF THE LELAND STANFORD JUNIOR …, priority 1998, published 2008).
# B1: huHsp47: native human Hsp47, 46.5 KDa protein gelatin-affinity purified from BFA induced HUVEC (protein)
# chain: AEVKKPVEAAAPGTAEKLSSKATTLAEPSTGLAFSLYQAMAKDQAVENILVSPVVVASSLGLVSLGGKATTASQAKAVLSAEQLRDEEVHAGLGELLRSLSNSTARNVTWKLGSRLYGPSSVSFADDFVASSKQHYNCEHSKINFPDKRSALQSINEWAAQTTDGKLPEVTKDVESTDGALLVNAMFFKPHWDEKFHHKMVDNRGFMVTRSYTVGVTMMHRTGLYNYYDDEKEKLQLVEMPLAHKLSSLIILMPHHVEPLERLEKLLTKEQLKIWMGKMQKKAVAISLPKGVVEVTHDLQKHLAGLGLTEAIDKNKADLSRMSGKKDLYLASVFHATAFELDTDGNPFDQDIYGREELRSPKLFYADHPFIFLVRDTQSGSLLFIGRLVRLKGDKMRDEL
# B2: eGFP-huHsp47: huHsp47δRDEL-enhanced green fluorescent protein fusion protein used as FACS probe (protein)
# chain: AEVKKPVEAAAPGTAEKLSSKATTLAEPSTGLAFSLYQAMAKDQAVENILVSPVVVASSLGLVSLGGKATTASQAKAVLSAEQLRDEEVHAGLGELLRSLSNSTARNVTWKLGSRLYGPSSVSFADDFVASSKQHYNCEHSKINFPDKRSALQSINEWAAQTTDGKLPEVTKDVESTDGALLVNAMFFKPHWDEKFHHKMVDNRGFMVTRSYTVGVTMMHRTGLYNYYDDEKEKLQLVEMPLAHKLSSLIILMPHHVEPLERLEKLLTKEQLKIWMGKMQKKAVAISLPKGVVEVTHDLQKHLAGLGLTEAIDKNKADLSRMSGKKDLYLASVFHATAFELDTDGNPFDQDIYGREELRSPKLFYADHPFIFLVRDTQSGSLLFIGRLVRLKGDKM
# modifications: left off: large carriers
# notes: huHsp47δRDEL-enhanced green fluorescent protein fusion protein used as FACS probe
# Legend:
# [1] = target: receptors for huHsp47 on CIK cells; test: FACS of mature d21 CIK cells stained with 10 ug/ml eGFP-huHsp47, PE-CD56 co-staining
# 46.5 KDa protein (Hsp47) = test: Immunoprecipitation and autoradiography of ^35S labeled 46.5 KDa protein from EC; assay type: cell-based, human
# Protocol: For metabolic ^35S methionine/cysteine labelling cells were cultured for 22 hours in cysteine and methionine free RPMI 1640 or Hams-F12K (Irvine Scientific, Santa Ana, Calif.) media with dialyzed FCS, otherwise as described above, prior to the addition of 100 μCi ml-1 of Translabel (PIERCE/Amersham, Amersham, UK) ^35S methionine/cysteine at the start of BFA, control treatment and incubated for the indicated times. Pulse-chase labelled proteins were analyzed by SDS-PAGE, western analysis or autoradiography and silver staining.
# Immunoprecipitation was carried out by first preparing preformed immune complexes as follows: Purified specific mouse monoclonal or rabbit polyclonal antibody were incubated in stoichiometric ratio with purified secondary goat anti-mouse or anti-rabbit antibody at a concentration of 10 μg ml-1 of 150 mM NaCl, 10 mM Tris-HCl, 1% (w/v) NP40, pH 7.8 with gentle agitation for 3 hours at 4° C. In a separate reaction their respective isotype matched control antibodies were coupled to protein A sepharose beads (Pharmacia, Uppsala, Sweden). […] The specific immune precipitate was recovered by centrifugation at 13,000 rpm for 30 minutes at 4° C., washed twice with 10 mM Tris-HCl at pH 6.8 and analyzed by SDS-PAGE and subsequent silver stain, transfer to solid support and streptavidin-AP detection and autoradiography. […]
# huHsp47 RNA = test: Northern analysis of huHsp47 RNA expression in BFA treated EC; assay type: cell-based, human; settings: EC under BFA treatment, 0, 2 and 6 hour time points
# Protocol: Northern analysis of huHsp47 RNA expression was carried out via a^32P-ATP nick translation labeling of the agarose gel purified full-length huHSP47 cDNA as probe and human beta action (a kind gift of Dr. S.N. Cohen) cDNA as internal control probe. Total RNA was harvested at 0 hour, 2 hour and 6 hour time points from EC undergoing BFA treatment. RNA for each time point was purified, denatured, subjected to formamide flatbed agarose gel electrophoresis, transferred to nitrocellulose, prehybridized, hybridized with the ^32P-labelled probes, washed under stringent conditions and autoradiographed without intensifier screens at −80° C. using techniques well known to those skilled in the art (see Sambrook et al. Molecular Cloning, A Laboratory Manual, second edition, Cold Spring Harbor Laboratory Press, 1989).
# OCI-Ly8 tumor cell = test: ^51Cr release CIK cytotoxicity assay, tumor targets; assay type: cell-based, human; settings: OCI-Ly8 incubated with BFA 0-10 μM for 6 hours, E:T 20:1
# Protocol: (§1) Target cells were metabolically labelled with ^51Cr (Dupont—New England Nuclear, Boston, Mass.) by incubating 1×10^6 cells in […] ^51Cr at 37° C. for 1-1.5 hours. The labelled cells were washed three times with phosphate buffered saline (PBS) containing 0.1% bovine serum albumin. The labelled cells were distributed in flat-bottomed 96 well microtiter plates at a concentration of 2×10^4 cells/well in triplicate. Effector (CIK) cells were added at the indicated ratios. Mabs were added prior to the addition of effector cells, and incubated for 15-30 minutes at room temperature. The final volume of the assay mixture in each well was 0.2 ml. After 4 hours at 37° C., the cells were collected by centrifugation and an aliquot of the supernatant was counted in a gamma counter (Micromedic Systems, Horsham, Pa.). The percentage of specific ^51Cr release was calculated according to the following equation: […]
# Spontaneous release was obtained by incubating the labelled cells in complete medium alone and maximal release by treatment of the cells with 1% NP-40. […]
# HUVEC = test: ^51Cr release CIK cytotoxicity assay, endothelial cell targets pre-treated with BFA, protein or peptide; assay type: cell-based, human; set-up: block of CIK mediated lysis of HUVECs: dose or concentration left out as unconfirmed; settings: for protection of EC from CIK lysis by pre-incubation with purified native protein: gelatin purified protein, 30 minutes, washed before CIK addition
# Protocol: as §1
# Spontaneous release was obtained by incubating the labelled cells in complete medium alone and maximal release by treatment of the cells with 1% NP-40.
# For brefeldin A (BFA) treatment, freshly confluent HUVEC monolayers, nonadherent target cells or CIK cells at 0.5-2×10^6 cells per ml were incubated with medium supplemented with 0.5-10 μg of brefeldin A (B6hringer Mannheim GmbH, Mannheim, Germany) per ml medium and incubated for 2-6 hours in a humidified incubator with 5% carbon dioxide at 37° C. BFA was dissolved at 100 μg per ml in 70% ethanol and used fresh or stored up to 4 weeks at −20° C. Prior to cytotoxicity assay the cells were rinsed three times with PBS, and fresh medium not containing BFA was added for the remainder of the assay (FIG. 4).
# Both HUVEC and OCI-Ly8 cells were incubated with BFA at concentrations of 0, 2.5, 5, 7.5 and 10 μM for 6 hours as described above, washed, labeled with ^51Cr and used in a cytotoxicity assay with d21 CIK cells at an E:T ratio of 20:1. Preincubation of EC targets with 2.5 μM BFA reduced CIK mediated cytotoxicity by 40%.
# Subsequent to ^51Cr labeling but prior to addition of effector cells 10-200 μg FPLC purified Hsp47 (Example 7) protein or 10 nM to 10 μM HPLC purified peptide […] (SEQ ID NO:3) (Example 8), both in sterile PBS at pH 7.4 and diluted to the final concentration with RPMI, were added to targets per ml of medium and incubated for 30 minutes at 37° C. in a humidified atmosphere of 5% CO2. In assays using purified protein, targets were subjected to three subsequent washes with 10 volumes of Ca^2+, Mg^2+ and 5% FCS containing PBS prior to providing fresh standard culture medium to the target cells. In assays using purified peptide, the added peptide was present for the entire assay. The remainder of the assay was performed as detailed above, at 37° C. in a humidified atmosphere of 5% CO2.
# mature d21 CIK = test: FACS analysis of mature d21 CIK with eGFP-tagged huHsp47 probe; assay type: binding, human; settings: 10 μg eGFP-huHsp47 per ml, PE-CD56 co-staining
# Protocol: For Fluorescence Activated Cell Sorting (FACS) 10^6 effector or target cells were washed twice with Ca^2+, Mg^2+ and 5% FCS containing PBS buffer, suspended in 50 μl of this buffer and placed at 0-4° C. in the dark. 1 μg of FITC-, PE-, Per-CP or TriColor labelled monoclonal antibody (Beckton Dickinson, San Jose, Calif.) per staining reaction of 10^6 cells was mixed with the cells and incubated for 15 to 30 minutes at 0-4° C. in the dark. Stained cells were subjected to three subsequent washes with 10 volumes of Ca^2+, Mg^2+ and 5% FCS containing PBS and taken up in 500 μl of this buffer for analysis or sort by FACScan/FACStar (Beckton Dickinson, San Jose, Calif.) with excitation at 488 nm and the appropriate channel filters for detection of emission.
# The huHsp47δRDEL-enhanced green fluorescent protein (eGFP) fusion protein, expressed under the control of the CMV IE promoter, was isolated as described above and used as a FACS probe to search for huHsp47 cell surface binding proteins. […]
# eGFP-tagged Hsp47 FACS probe was generated through additional genetic engineering (FIG. 8A) (SEQ ID NOS: 15-18). […] FACS analysis of mature d21 CIK with eGFP-tagged HuHsp47 as FACS probe for the FITC channel, with CE56-PE co-staining, is based on differences in the Hsp47 binding ability of the analyzed CIK. […]
molecule,measurement,setting,value
huHsp47δRDEL-enhanced green fluorescent protein (eGFP) fusion protein (from UniProt P50454 19-414),percent of cells positive for both eGFP-huHsp47 and PE-CD56 probes,[1],26%
"CC1CCCC=CC2CC(O)CC2C(O)C=CC(=O)O1 (centres unmarked) [BFA, 1,6,7,8,9,11a,12,13,14,14a-decahydro-1,13-dihydroxy-6-methyl-4H-cyclopent[f]oxacyclotridecin-4-one, reference compound]",^35S labeled 46.5 KDa protein in IP from EC,46.5 KDa protein (Hsp47); non-protective dose of 30 μM BFA,not detectable
same,^35S labeled 46.5 KDa protein in IP from EC,46.5 KDa protein (Hsp47); protective dose of 10 μm BFA,contained a ^35S labeled 46.5 KDa protein
same,expression of housekeeping gene beta action,huHsp47 RNA,does not affect
same,huHsp47 gene expression,huHsp47 RNA,does upregulate
same,effect on ability of CIK cells to lyse tumor targets,OCI-Ly8 tumor cell,did not affect
same,suppression of CIK mediated lysis of EC,"HUVEC; BFA 0, 2.5, 5, 7.5 and 10 μM for 6 hours, E:T 20:1",suppress the CIK mediated lysis of EC in a dose dependent manner
same,persistence of resistant EC state after removal of the agent,HUVEC; after BFA removal,at least six hours
same,block of CIK mediated lysis of HUVECs,"HUVEC; preincubation in BFA (so in the source), 6 hours, E:T 20:1",completely block
same,reduction of CIK mediated cytotoxicity against EC targets,"HUVEC; preincubation with 2.5 μM BFA for 6 hours, d21 CIK, E:T 20:1",40%
B1,protection of EC from CIK mediated lysis,HUVEC; 20 μm of gelatin-affinity purified huHsp47 per 300 μl,completely protect
same,protection of EC from CIK lysis by pre-incubation with purified native protein,HUVEC,protects EC
same,protection of EC from CIK lysis by pre-incubation with purified native protein,HUVEC; listed as p46.5,protect previously CIK sensitive EC in a dose responsive fashion
B2,CIK cells stained by eGFP-tagged Hsp47 probe,mature d21 CIK,26%
